Laboratory results reported in ChEMBL document CHEMBL2074157, “The modified dipeptide, enalapril, an angiotensin-converting enzyme inhibitor, is transported by the rat liver organic anion transport protein” (Hepatology, 1998).

T1: Oatp1 (Solute carrier organic anion transporter family member 1A1) (Rattus norvegicus, UniProt P46720)
T1 sequence (P46720 whole entry): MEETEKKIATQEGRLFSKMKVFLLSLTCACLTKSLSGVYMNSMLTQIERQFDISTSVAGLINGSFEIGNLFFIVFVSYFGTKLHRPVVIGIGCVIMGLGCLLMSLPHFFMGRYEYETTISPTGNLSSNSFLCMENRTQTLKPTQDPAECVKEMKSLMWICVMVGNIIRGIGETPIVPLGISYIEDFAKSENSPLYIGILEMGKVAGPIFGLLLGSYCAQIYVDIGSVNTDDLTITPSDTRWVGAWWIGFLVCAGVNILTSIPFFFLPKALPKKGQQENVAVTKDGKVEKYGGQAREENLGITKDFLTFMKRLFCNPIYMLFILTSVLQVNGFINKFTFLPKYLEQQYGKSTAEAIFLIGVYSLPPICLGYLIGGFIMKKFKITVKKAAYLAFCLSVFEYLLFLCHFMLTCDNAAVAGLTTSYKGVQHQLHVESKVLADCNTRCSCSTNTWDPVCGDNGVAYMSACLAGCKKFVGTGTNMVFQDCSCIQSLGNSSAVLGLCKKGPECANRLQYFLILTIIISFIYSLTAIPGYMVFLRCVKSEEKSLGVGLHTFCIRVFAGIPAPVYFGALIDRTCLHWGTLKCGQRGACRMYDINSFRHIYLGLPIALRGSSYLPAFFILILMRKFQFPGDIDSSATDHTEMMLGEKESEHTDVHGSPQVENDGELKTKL

T2: Solute carrier organic anion transporter family member 1A1 (Rattus norvegicus, UniProt P46720)
T2 sequence (P46720 whole entry): T1 sequence (P46720 whole entry)

B1: Solute carrier organic anion transporter family member 1A1 (Rattus norvegicus) (protein)
chain: T1 sequence (P46720 whole entry)

How the values were obtained:
Type in all cases: functional, cell-based
[1] = target: T1, Oatp1 (Solute carrier organic anion transporter family member 1A1); assay: TP_TRANSPORTER: inhibition of Enalapril uptake (Enalapril: ? uM, BSP-SG: 200 uM) in Oatp1-expressing HeLa cells; design: scale not given: the % may be the effect or the level left; conditions: human, probe Enalapril, read-out: Activity
[2] = target: T2, Solute carrier organic anion transporter family member 1A1; assay: (§1) TP_TRANSPORTER: uptake in Oatp1-expressing HeLa cells; conditions: human
[3] = target: T1, Oatp1 (Solute carrier organic anion transporter family member 1A1); assay: TP_TRANSPORTER: inhibition of Enalapril uptake (Enalapril: ? uM, E1S: 100 uM) in Oatp1-expressing HeLa cells; design: scale not given: the % may be the effect or the level left; conditions: human, probe Enalapril, read-out: Activity
[4] = target: T2, Solute carrier organic anion transporter family member 1A1; assay: TP_TRANSPORTER: inhibition of Enalapril uptake in Oatp1-expressing HeLa cells
[5] = substrate: CCOC(=O)[C@H](CCc1ccccc1)N[C@@H](C)C(=O)N1CCC[C@H]1C(=O)O; assay: as §1

Molecule | Activity [2] | further results
N[C@@H](CCC(=O)N[C@@H](CSc1c(Br)c(Br)c2c(c1Br)C(=O)OC2(c1ccc(O)c(S(=O)(=O)O)c1)c1ccc(O)c(S(=O)(=O)O)c1)C(=O)NCC(=O)O)C(=O)O | substrate [+] | activity at 200 µM [1]: 78%
C[C@H](N[C@@H](CCc1ccccc1)C(=O)O)C(=O)N1CCC[C@H]1C(=O)O [ENALAPRILAT ANHYDROUS] | is not a substrate [-] | –
C[C@]12CC[C@@H]3c4ccc(OS(=O)(=O)O)cc4CC[C@H]3[C@@H]1CCC2=O [ESTRONE SULFURIC ACID] | substrate [+] | activity at 100 µM [3]: 20%
Cc1nccc2c1[nH]c1cc(O)ccc12.O=S(=O)(O)O [HARMOL SULFATE] | is not a substrate [-] | –
O=C1OC(c2ccc(O)c(S(=O)(=O)O)c2)(c2ccc(O)c(S(=O)(=O)O)c2)c2c(Br)c(Br)c(Br)c(Br)c21 [SULFOBROMOPHTHALEIN SODIUM] | – | Ki [4]: 1980 nM
B1 | – | Km [5]: 252 µM
